# Data reported in patent publication US20180353462A1, “[…] AGENTS […] FLAVONOID DERIVATIVES TARGETING KINASES, SIRTUINS AND ONCOGENIC AGENTS FOR THE TREATMENT OF CANCERS” (priority 2015, published 2018).
# Target: T1, FLT3(D835Y) (Homo sapiens, UniProt P36888, D835Y)
# T1 construct: made in house
# T1 sequence (P36888 27-993 D835Y): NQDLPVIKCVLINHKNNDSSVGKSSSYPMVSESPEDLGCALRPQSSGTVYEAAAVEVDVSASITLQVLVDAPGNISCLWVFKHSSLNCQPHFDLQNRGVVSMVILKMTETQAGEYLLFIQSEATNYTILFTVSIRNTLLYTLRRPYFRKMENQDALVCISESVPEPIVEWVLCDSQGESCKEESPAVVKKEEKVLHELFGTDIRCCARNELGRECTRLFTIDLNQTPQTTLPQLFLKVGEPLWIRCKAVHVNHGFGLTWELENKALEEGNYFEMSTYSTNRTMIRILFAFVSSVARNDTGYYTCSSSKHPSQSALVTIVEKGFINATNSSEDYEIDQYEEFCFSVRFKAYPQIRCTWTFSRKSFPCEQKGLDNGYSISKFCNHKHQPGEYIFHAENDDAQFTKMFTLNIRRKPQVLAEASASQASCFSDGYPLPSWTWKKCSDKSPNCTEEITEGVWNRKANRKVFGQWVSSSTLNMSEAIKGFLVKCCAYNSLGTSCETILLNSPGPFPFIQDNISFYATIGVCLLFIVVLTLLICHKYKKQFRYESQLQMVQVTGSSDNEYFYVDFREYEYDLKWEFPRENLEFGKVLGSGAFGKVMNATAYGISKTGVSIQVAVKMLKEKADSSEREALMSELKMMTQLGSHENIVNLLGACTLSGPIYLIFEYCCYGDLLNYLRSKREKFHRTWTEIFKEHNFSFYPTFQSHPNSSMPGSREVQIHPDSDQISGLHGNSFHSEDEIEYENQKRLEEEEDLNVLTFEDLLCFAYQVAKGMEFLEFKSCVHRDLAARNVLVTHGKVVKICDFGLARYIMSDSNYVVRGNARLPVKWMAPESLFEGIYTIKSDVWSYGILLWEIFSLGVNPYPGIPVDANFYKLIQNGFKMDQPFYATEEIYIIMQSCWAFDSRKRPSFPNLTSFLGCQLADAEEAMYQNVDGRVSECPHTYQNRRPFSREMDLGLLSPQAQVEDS
# Assay: not given
# Format: binding
# Conditions: Table 1 kinase panel; read-out: IC50 (nM) FLT3(D835Y)
# Experimental: Cannabis flavonoids and their analogs were subjected to kinase inhibition assay. The compounds were first screened at a single concentration of 10 μM in the primary assay. […] To determine the kd or IC50 values, competition binding assays were established, authenticated and executed as described previously. […] See also, Karaman et al., “A Quantitative Analysis Of Kinase Inhibitor Selectivity”, Nat. Biotechnol. […] For most assays, kinases were fused to T7 phage strains (Fabian, supra) and for the other assays, kinases were produced in HEK-293 cells after which they were tagged with DNA for quantitative PCR detection. In general, full-length constructs were used for small, single domain kinases, and catalytic domain constructs for large multi-domain kinases. […] The liganded beads were blocked with excess biotin and washed with blocking buffer (SeaBlock (Pierce), 1% BSA, 0.05% Tween 20, 1 mM DTT) to remove unbound ligand and to reduce non-specific phage binding. […] All reactions were performed in polypropylene 384-well plates in a final volume of 0.04 ml. […] The kinase concentration in the eluates was measured by quantitative PCR. An illustration of the kinase interaction process is presented below. Kd/IC50 values were determined using a standard dose response curve using the hill equation. Curves were fitted using a non-linear least square fit with the Levenberg-Marquardt algorithm.
row,SMILES,IC50 [nM]
1,COc1cc(-c2cc(=O)c3c(O)cc(O)c(C/C=C(\C)CCC=C(C)C)c3o2)ccc1O [FBL-03C],> 20000
2,COc1cc(-c2cc(=O)c3c(O)c(CC=C(C)C)c(O)cc3o2)ccc1O [FBL-03B],12.7
3,COc1cc(-c2cc(=O)c3c(O)cc(O)c(CC=C(C)C)c3o2)ccc1O [FBL-03G],45
4,COc1cc(-c2cc(=O)c3c(O)c(C/C=C(\C)CCC=C(C)C)c(O)cc3o2)ccc1O [FBL-03A],> 20000
5,COc1ccc(-c2cc(=O)c3c(O)c(C/C=C(\C)CCC=C(C)C)c(O)cc3o2)cc1OC [FBL-03D],> 30000

# Same assay, conditions: Table 4; read-out: Acute Myeloid Leukemia Kinases FLT3-D835Y IC50
row,SMILES,IC50 [nM]
1,COc1cc(-c2cc(=O)c3c(O)c(OC)c(OC)cc3o2)ccc1O [FBLGS-85],22
2,O=C1CC(c2ccc(O)c(O)c2)Oc2cc(O)cc(O)c21 (stereo not shown) [FBLGS-82],11000
3,O=c1c(O)c(-c2ccc(O)c(O)c2)oc2cc(O)cc(O)c12 [FBLGS-84],194
4,COc1cc(O)c2c(=O)c(O)c(-c3ccc(O)c(O)c3)oc2c1 [FBLGS-78],149
5,O=c1cc(-c2ccc(O)c(O)c2)oc2cc(O)cc(O)c12 [FBLGS-77],577
6,COc1cc(O)c2c(=O)c(O)c(-c3ccc(O)c(O)c3)oc2c1 [FBLGS-79],13
7,O=c1c(O)c(-c2ccc(O)c(O)c2)oc2cc(O)ccc12 [FBLGS-83],82
8,COc1cc(O)c2c(=O)c(O)c(-c3ccc(O)c(OC)c3)oc2c1 [FBLGS-80],27
9,COc1cc(-c2cc(=O)c3c(O)c(OC)c(O)cc3o2)ccc1O [FBLGS-86],43
10,Cc1cc2oc(-c3cccc(N)c3)cc(=O)c2c([N+](=O)[O-])c1C [FBLGS-76],680
11,COc1ccc(C2CC(=O)c3c(O)cc(O)cc3O2)cc1O (stereo not shown) [FBLGS-74],8580
12,O=c1cc(-c2ccccc2)oc2cc(O)cc(O)c12 [FBLGS-75],76
13,COc1cc(-c2oc3cc(O)ccc3c(=O)c2O)ccc1O [FBLGS-81],0.9

# Tested on: MV4-11 (Leukemia)
# Assay: WST-1 anticancer cell proliferation assay, MV4-11
# Format: cell-based
# Conditions: Table 3; 72 hours, WST-1; read-out: IC50 (μM) MV4-11 (Leukemia)
# Experimental: (§1) Anticancer activity was tested against several standard cancer cell lines including brain, breast, Kaposi sarcoma, leukemia, lung, melanoma, tenosynovial giant cell tumor, ovarian, pancreatic, colon and prostate cancer. Cells were trypsinized and plated into 96 well plates in 50 μl of media and incubated overnight. The next day approximately 18 hours after plating, 50 μl of media containing the required flavonoid-based pharmaceutical composition was added per well. Cells were plated at a density so that 72 hours post drug addition, the cells will be in log phase (500)-2000 cells/well). The compounds and extracts were solubilized in Dimethyl sulfoxide (DMSO). The cells are allowed to proliferate for 72 hours 37° C. in humidified atmosphere of 5% CO2. The experiment is terminated using WST-1 (Roche®) 10 μl per well and absorbance is read at 450 nm %690 nm. The effect of drugs on growth is assessed as percent of cell viability. The IC50 values were determined from the extract dose versus control growth curves using Graphpad Prism® software. All experiments were carried out in duplicate and the mean results determined.
row,SMILES,IC50 [µM]
1,COc1cc(-c2cc(=O)c3c(O)c(CC=C(C)C)c(O)cc3o2)ccc1O [FBL-03B],1.43
2,COc1cc(-c2cc(=O)c3c(O)cc(O)c(CC=C(C)C)c3o2)ccc1O [FBL-03G],3.1

# Same assay, conditions: Table 4; read-out: Acute Myeloid Leukemia cell lines MV4-11 IC50
row,SMILES,IC50 [µM]
1,COc1cc(-c2cc(=O)c3c(O)c(OC)c(OC)cc3o2)ccc1O [FBLGS-85],0.9
2,O=C1CC(c2ccc(O)c(O)c2)Oc2cc(O)cc(O)c21 (stereo not shown) [FBLGS-82],> 10
3,O=c1c(O)c(-c2ccc(O)c(O)c2)oc2cc(O)cc(O)c12 [FBLGS-84],6.3
4,COc1cc(O)c2c(=O)c(O)c(-c3ccc(O)c(O)c3)oc2c1 [FBLGS-78],5.62
5,O=c1cc(-c2ccc(O)c(O)c2)oc2cc(O)cc(O)c12 [FBLGS-77],7.21
6,COc1cc(O)c2c(=O)c(O)c(-c3ccc(O)c(O)c3)oc2c1 [FBLGS-79],3.41
7,O=c1c(O)c(-c2ccc(O)c(O)c2)oc2cc(O)ccc12 [FBLGS-83],1.6
8,COc1cc(O)c2c(=O)c(O)c(-c3ccc(O)c(OC)c3)oc2c1 [FBLGS-80],5.86
9,COc1cc(-c2cc(=O)c3c(O)c(OC)c(O)cc3o2)ccc1O [FBLGS-86],2.2
10,Cc1cc2oc(-c3cccc(N)c3)cc(=O)c2c([N+](=O)[O-])c1C [FBLGS-76],1.9
11,COc1ccc(C2CC(=O)c3c(O)cc(O)cc3O2)cc1O (stereo not shown) [FBLGS-74],> 100
12,O=c1cc(-c2ccccc2)oc2cc(O)cc(O)c12 [FBLGS-75],4.35
13,COc1cc(-c2oc3cc(O)ccc3c(=O)c2O)ccc1O [FBLGS-81],0.9

# Tested on: MOLM-14 acute myeloid leukemia cell line
# Assay: WST-1 anticancer cell proliferation assay, MOLM-14
# Format: cell-based
# Conditions: Table 4; read-out: Acute Myeloid Leukemia cell lines MOLM-14 IC50
# Experimental: as §1
row,SMILES,IC50 [µM]
1,COc1cc(-c2cc(=O)c3c(O)c(OC)c(OC)cc3o2)ccc1O [FBLGS-85],1.5
2,O=C1CC(c2ccc(O)c(O)c2)Oc2cc(O)cc(O)c21 (stereo not shown) [FBLGS-82],> 10
3,O=c1c(O)c(-c2ccc(O)c(O)c2)oc2cc(O)cc(O)c12 [FBLGS-84],7.42
4,COc1cc(O)c2c(=O)c(O)c(-c3ccc(O)c(O)c3)oc2c1 [FBLGS-78],5.73
5,O=c1cc(-c2ccc(O)c(O)c2)oc2cc(O)cc(O)c12 [FBLGS-77],7.34
6,COc1cc(O)c2c(=O)c(O)c(-c3ccc(O)c(O)c3)oc2c1 [FBLGS-79],4.84
7,O=c1c(O)c(-c2ccc(O)c(O)c2)oc2cc(O)ccc12 [FBLGS-83],2.35
8,COc1cc(O)c2c(=O)c(O)c(-c3ccc(O)c(OC)c3)oc2c1 [FBLGS-80],6.12
9,COc1cc(-c2cc(=O)c3c(O)c(OC)c(O)cc3o2)ccc1O [FBLGS-86],3.1
10,Cc1cc2oc(-c3cccc(N)c3)cc(=O)c2c([N+](=O)[O-])c1C [FBLGS-76],2.3
11,COc1ccc(C2CC(=O)c3c(O)cc(O)cc3O2)cc1O (stereo not shown) [FBLGS-74],> 100
12,O=c1cc(-c2ccccc2)oc2cc(O)cc(O)c12 [FBLGS-75],4.57
13,COc1cc(-c2oc3cc(O)ccc3c(=O)c2O)ccc1O [FBLGS-81],0.7

# Tested on: THP-1 acute myeloid leukemia cell line
# Assay: WST-1 anticancer cell proliferation assay, THP-1
# Format: cell-based
# Conditions: Table 4; read-out: Acute Myeloid Leukemia cell lines THP-1 IC50
# Experimental: as §1
row,SMILES,IC50 [µM]
1,COc1cc(-c2cc(=O)c3c(O)c(OC)c(OC)cc3o2)ccc1O [FBLGS-85],> 100
2,O=C1CC(c2ccc(O)c(O)c2)Oc2cc(O)cc(O)c21 (stereo not shown) [FBLGS-82],> 100
3,COc1cc(O)c2c(=O)c(O)c(-c3ccc(O)c(O)c3)oc2c1 [FBLGS-78],> 100
4,O=c1cc(-c2ccc(O)c(O)c2)oc2cc(O)cc(O)c12 [FBLGS-77],> 100
5,COc1cc(O)c2c(=O)c(O)c(-c3ccc(O)c(O)c3)oc2c1 [FBLGS-79],> 100
6,O=c1c(O)c(-c2ccc(O)c(O)c2)oc2cc(O)ccc12 [FBLGS-83],13
7,COc1cc(O)c2c(=O)c(O)c(-c3ccc(O)c(OC)c3)oc2c1 [FBLGS-80],> 100
8,COc1cc(-c2cc(=O)c3c(O)c(OC)c(O)cc3o2)ccc1O [FBLGS-86],> 100
9,Cc1cc2oc(-c3cccc(N)c3)cc(=O)c2c([N+](=O)[O-])c1C [FBLGS-76],> 100
10,COc1ccc(C2CC(=O)c3c(O)cc(O)cc3O2)cc1O (stereo not shown) [FBLGS-74],> 100
11,O=c1cc(-c2ccccc2)oc2cc(O)cc(O)c12 [FBLGS-75],> 100
12,COc1cc(-c2oc3cc(O)ccc3c(=O)c2O)ccc1O [FBLGS-81],> 100

# Tested on: Normal Bone marrow
# Assay: Cell viability, normal bone marrow
# Format: cell-based
# Conditions: Table 4
# Experimental: as §1, with “Bioactivity of the above-described compounds has been verified by an anticancer cell proliferation assay using the WST-1 (4-[3-(4-iodophenyl)-2-(4-nitrophenyl)-2H-5-tetrazolio]-1, 3-benzene disulfonate) colorimetric assay by Roche Life Sciences®. Anticancer” for “Anticancer”
row,SMILES,IC50 [µM]
1,COc1cc(-c2cc(=O)c3c(O)c(OC)c(OC)cc3o2)ccc1O [FBLGS-85],> 100
2,O=C1CC(c2ccc(O)c(O)c2)Oc2cc(O)cc(O)c21 (stereo not shown) [FBLGS-82],> 100
3,O=c1c(O)c(-c2ccc(O)c(O)c2)oc2cc(O)cc(O)c12 [FBLGS-84],> 100
4,COc1cc(O)c2c(=O)c(O)c(-c3ccc(O)c(O)c3)oc2c1 [FBLGS-78],> 100
5,O=c1cc(-c2ccc(O)c(O)c2)oc2cc(O)cc(O)c12 [FBLGS-77],> 100
6,COc1cc(O)c2c(=O)c(O)c(-c3ccc(O)c(O)c3)oc2c1 [FBLGS-79],> 100
7,COc1cc(O)c2c(=O)c(O)c(-c3ccc(O)c(OC)c3)oc2c1 [FBLGS-80],> 100
8,COc1cc(-c2cc(=O)c3c(O)c(OC)c(O)cc3o2)ccc1O [FBLGS-86],> 100
9,Cc1cc2oc(-c3cccc(N)c3)cc(=O)c2c([N+](=O)[O-])c1C [FBLGS-76],> 100
10,COc1ccc(C2CC(=O)c3c(O)cc(O)cc3O2)cc1O (stereo not shown) [FBLGS-74],> 100
11,O=c1cc(-c2ccccc2)oc2cc(O)cc(O)c12 [FBLGS-75],> 100
12,COc1cc(-c2oc3cc(O)ccc3c(=O)c2O)ccc1O [FBLGS-81],> 100
